Values of other authors in patent publication US20180271826A1, “DRY POWDERS OF CANNABINOIDS AND METHODS FOR PREPARING DRY POWDERS” (COLORADO CAN LLC, priority 2017, published 2018).

Tests used:
[1] = oral ingestion (Ohlsson 1980)
[2] = transdermal patch (Stinchcomb 2004)
[3] = cannabis resin, 4 years, 4° C. in the dark (Trofin 2012)
[4] = burning of cannabis cigarettes (Elzinga 2015)
[5] = plant material, room temperature (20° C.) near a source of light, a little under two years (Fairbarn 1976)

Compound | time of peak THC concentrations after dosing [1] [h] | peak THC concentration [2] [ng/mL] | time of peak THC concentration [2] [h] | original content degraded [3] [%] | theoretically present amount recovered in total smoke and remaining ash [4] [%] | original THC content remaining [5] [%]
CCCCCc1cc(O)c2c(c1)OC(C)(C)[C@@H]1CCC(C)=C[C@@H]21 [THC, Δ9-tetrahydrocannabinol] | 1 to 5 | 4.4 | 1.4 | 95.77 | 36.9 | 37
C=C(C)[C@@H]1CCC(C)=C[C@H]1c1c(O)cc(CCCCC)cc1O [CBD, cannabidiol] |  |  |  | 55.75 | 38.4 | 
